From patent US20230022157A1 (Achillion Pharmaceuticals, Inc., priority 2018, published 2023)
pIC50: −log10 of the molar value.

biological target: T1, Human Factor D (Homo sapiens, UniProt P00746); assay: Human Factor D Assay; type: biochemical; settings: Human Factor D 80 nM, substrate Z-L-Lys-SBzl, assay of Example 3; read-out: IC50 (Stars)
T1 construct: purified from human serum; purchased Complement Technology, Inc; host or cells: human serum (natural protein, not recombinant)
How it was run: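 Serum-purified human factor D (80 nM final) preincubated 5 min at room temperature with test compound in 50 mM Tris, 1M NaCl, pH 7.5. Z-L-Lys-SBzl substrate and DTNB then added, each at 100 μM final. IC50 from nonlinear regression of reaction rate against compound concentration.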

T1 sequence (P00746 26-253): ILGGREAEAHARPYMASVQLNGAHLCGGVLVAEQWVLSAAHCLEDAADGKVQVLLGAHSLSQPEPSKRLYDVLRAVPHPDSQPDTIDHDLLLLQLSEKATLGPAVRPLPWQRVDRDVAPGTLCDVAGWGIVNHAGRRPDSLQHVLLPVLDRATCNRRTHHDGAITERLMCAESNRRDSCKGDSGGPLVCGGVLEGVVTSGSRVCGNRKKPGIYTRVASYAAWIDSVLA

pIC50 | SMILES
> 6.00 | CC(=O)c1nn(CC(=O)N2C[C@H](F)C[C@H]2C(=O)Nc2cccc(Br)n2)c2ccc(-c3ccc(C)cc3)cc12 [Compound 29, (2S,4R)-1-(2-(3-Acetyl-5-(p-tolyl)-1H-indazol-1-yl)acetyl)-N-(6-bromopyridin-2-yl)-4-fluoropyrrolidine-2-carboxamide]
> 6.00 | CC(=O)c1nn(CC(=O)N2[C@H](C(=O)N[C@@H](C)[C@H]3CC3(Cl)Cl)C[C@@]3(C)C[C@@H]23)c2ccc(-c3cnc(C)nc3)cc12 [Compound 26, (1R,3S,5R)-2-(2-(3-acetyl-5-(2-methylpyrimidin-5-yl)-1H-indazol-1-yl)acetyl)-N-((S)-1-((R)-2,2-dichlorocyclo-propyl)ethyl)-5-methyl-2-azabicyclo[3.1.0] hexane-3-carboxamide]
> 6.00 | CC(=O)c1nn(CC(=O)N2[C@H](C(=O)NCCc3ccccn3)C[C@@]3(C)C[C@@H]23)c2c(C)cc(-c3cnc(C)nc3)cc12 [Compound 6, (1R,3S,5R)-2-(2-(3-Acetyl-7-methyl-5-(2-methylpyrimidin-5-yl)-1H-indazol-1-yl)acetyl)-5-methyl-N-(2-(pyridin-2-yl)ethyl)-2-azabicyclo[3.1.0]hexane-3-carboxamide]
> 6.00 | CC(=O)c1nn(CC(=O)N2[C@H](C(=O)N[C@@H](C)CC(C)C)C[C@@]3(C)C[C@@H]23)c2ccc(-c3cnc(C)nc3)cc12 [Compound 10, (1R,3S,5R)-2-(2-(3-Acetyl-5-(2-methylpyrimidin-5-yl)-1H-indazol-1-yl)acetyl)-5-methyl-N—((S)-4-methylpentan-2-yl)-2-azabicyclo[3.1.0]hexane-3-carboxamide]

same assay, conditions: Human Factor D 80 nM, substrate Z-L-Lys-SBzl; Table 2; read-out: IC50 (Stars)

SMILES | pIC50
CC(=O)c1nn(CC(=O)N2[C@H](C(=O)Nc3cncc(Br)n3)C[C@@]3(C)C[C@@H]23)c2c(C)cc(-c3cnc(C(=O)O)nc3)cc12 [Compound 43, 5-(3-acetyl-1-(2-((1R,3S,5R)-3-((6-bromopyrazin-2-yl)carbamoyl)-5-methyl-2-azabicyclo[3.1.0]hexan-2-yl)-2-oxoethyl)-7-methyl-1H-indazol-5-yl)pyrimidine-2-carboxylic acid] | > 6.00
CC(=O)c1nn(CC(=O)N2[C@H](C(=O)Nc3ccc(F)c(Br)n3)C[C@@]3(C)C[C@@H]23)c2c(C)cc(-c3cnc(C(C)O)nc3)cc12 (stereo partly drawn) [Compound 125, (1R,3S,5R)-2-(2-(3-acetyl-5-(2-(1-hydroxyethyl)pyrimidin-5-yl)-7-methyl-11H-indazol-1-yl)acetyl)-N-(6-bromo-5-fluoropyridin-2-yl)-5-methyl-2-azabicyclo[3.1.0]hexane-3-carboxamide] | > 6.00
CC(=O)c1nn(CC(=O)N2[C@H](C(=O)NCCC3CCC3)C[C@@]3(C)C[C@@H]23)c2c(C)cc(-c3cnc(C)nc3)cc12 [Compound 104, (1R,3S,5R)-2-{2-[3-acetyl-7-methyl-5-(2-methylpyrimidin-5-yl)indazol-1-yl]acetyl}-N-(2-cyclobutylethyl)-5-methyl-2-azabicyclo[3.1.0]hexane-3-carboxamide] | > 6.00
CC(=O)c1nn(CC(=O)N2[C@H](C(=O)NCC3(C)CC3)C[C@@]3(C)C[C@@H]23)c2c(C)cc(-c3cnc(C)nc3)cc12 [Compound 89, (1R,3S,5R)-2-{2-[3-acetyl-7-methyl-5-(2-methylpyrimidin-5-yl)indazol-1-yl]acetyl}-5-methyl-N-[(1-methylcyclopropyl)methyl]-2-azabicyclo[3.1.0]hexane-3-carboxamide] | > 6.00
CC(=O)c1cn(CC(=O)N2[C@H](C(=O)Nc3ccc(C)c(Br)n3)C[C@@]3(C)C[C@@H]23)c2c(C)cc(-c3cnc(C)nc3)cc12 [Compound 156, (1R,3S,5R)-2-(2-(3-acetyl-7-methyl-5-(2-methylpyrimidin-5-yl)-1H-indol-1-yl)acetyl)-N-(6-bromo-5-methylpyridin-2-yl)-5-methyl-2-azabicyclo[3.1.0]hexane-3-carboxamide] | > 6.00
CC(=O)c1nn(CC(=O)N2[C@H](C(=O)N[C@@H](C)c3ccc4c(c3)CCCC4)C[C@@]3(C)C[C@@H]23)c2c(C)cc(-c3cnc(C)nc3)cc12 [Compound 151, (1R,3S,5R)-2-{2-[3-acetyl-7-methyl-5-(2-methylpyrimidin-5-yl)indazol-1-yl]acetyl}-5-methyl-N-[(1S)-1-(5,6,7,8-tetrahydronaphthalen-2-yl)ethyl]-2-azabicyclo[3.1.0]hexane-3-carboxamide] | 5.00 to 6.00
COC(=O)c1ncc(-c2ccc3c(c2)c(C(C)=O)nn3CC(=O)N2[C@H](C(=O)Nc3nc(Br)ccc3C)C[C@@]3(C)C[C@@H]23)cn1 [Compound 46, methyl 5-(3-acetyl-1-(2-((1R,3S,5R)-3-((6-bromo-3-methylpyridin-2-yl)carbamoyl)-5-methyl-2-azabicyclo[3.1.0]hexan-2-yl)-2-oxoethyl)-1H-indazol-5-yl)pyrimidine-2-carboxylate] | > 6.00
C=CCC(Cc1ccccc1)NC(=O)[C@@H]1C[C@@]2(C)C[C@H]2N1C(=O)Cn1nc(C(C)=O)c2cc(-c3cnc(C)nc3)cc(C)c21 (stereo partly drawn) [Compound 174, (1R,3S,5R)-2-{2-[3-acetyl-7-methyl-5-(2-methylpyrimidin-5-yl)indazol-1-yl]acetyl}-5-methyl-N-(1-phenylpent-4-en-2-yl)-2-azabicyclo[3.1.0]hexane-3-carboxamide] | > 6.00
CCCC(C)(C)CNC(=O)[C@@H]1C[C@@]2(C)C[C@H]2N1C(=O)Cn1nc(C(C)=O)c2cc(-c3cnc(C)nc3)cc(C)c21 [Compound 116, (1R,3S,5R)-2-{2-[3-acetyl-7-methyl-5-(2-methylpyrimidin-5-yl)indazol-1-yl]acetyl}-N-(2,2-dimethylpentyl)-5-methyl-2-azabicyclo[3.1.0]hexane-3-carboxamide] | > 6.00
CC(=O)c1cn(CC(=O)N2[C@H](C(=O)Nc3nccc(C(F)(F)F)n3)C[C@@]3(C)C[C@@H]23)c2c(C)cc(-c3cnc(C)nc3)cc12 [Compound 235, (1R,3S,5R)-2-(2-(3-acetyl-7-methyl-5-(2-methylpyrimidin-5-yl)-1H-indol-1-yl)acetyl)-5-methyl-N-(4-(trifluoromethyl)pyrimidin-2-yl)-2-azabicyclo[3.1.0]hexane-3-carboxamide] | > 6.00
CC(=O)c1nn(CC(=O)N2[C@H](C(=O)Nc3nc(C(C)(F)F)ccc3C)C[C@@]3(C)C[C@@H]23)c2c(C)cc(-c3cnc(C)nc3)cc12 [Compound 130, (1R,3S,5R)-2-(2-(3-Acetyl-7-methyl-5-(2-methylpyrimidin-5-yl)-1H-indazol-1-yl)acetyl)-N-(6-(1,1-difluoroethyl)-3-methylpyridin-2-yl)-5-methyl-2-azabicyclo[3.1.0]hexane-3-carboxamide] | > 6.00

Other lines, results leading:

pIC50 | SMILES
> 6.00 | CC(=O)c1nn(CC(=O)N2[C@H](C(=O)Nc3nc(C(F)(F)F)ccc3C)C[C@@]3(C)C[C@@H]23)c2ccc(-c3cnc4cc(C)nn4c3)cc12 [Compound 212, (1R,3S,5R)-2-(2-(3-acetyl-5-(2-methylpyrazolo[1,5-a]pyrimidin-6-yl)-1H-indazol-1-yl)acetyl)-5-methyl-N-(3-methyl-6-(trifluoromethyl)pyridin-2-yl)-2-azabicyclo[3.1.0]hexane-3-carboxamide]
> 6.00 | CC(=O)c1nn(CC(=O)N2[C@H](C(=O)Nc3cc(C)cc(Br)n3)C[C@@]3(C)C[C@@H]23)c2c(C)cc(-c3cnc(CO)nc3)cc12 [Compound 93, (1R,3S,5R)-2-(2-(3-acetyl-5-(2-(hydroxymethyl)pyrimidin-5-yl)-7-methyl-1H-indazol-1-yl)acetyl)-N-(6-bromo-4-methylpyridin-2-yl)-5-methyl-2-azabicyclo[3.1.0]hexane-3-carboxamide]
> 6.00 | CC(=O)c1nn(CC(=O)N2[C@H](C(=O)Nc3cncc(Br)n3)C[C@@]3(C)C[C@@H]23)c2c(C)cc(-c3cnc(C(C)O)nc3)cc12 (stereo partly drawn) [Compound 109, (1R,3S,5R)-2-(2-(3-acetyl-5-(2-(1-hydroxyethyl)pyrimidin-5-yl)-7-methyl-11H-indazol-1-yl)acetyl)-N-(6-bromopyrazin-2-yl)-5-methyl-2-azabicyclo[3.1.0]hexane-3-carboxamide]
> 6.00 | CC(=O)c1nn(CC(=O)N2[C@H](C(=O)N[C@@H]3CCCCC34OCCO4)C[C@@]3(C)C[C@@H]23)c2c(C)cc(-c3cnc(C)nc3)cc12 (single isomer, unassigned) [Compound 136]
> 6.00 | COc1ncc(-c2cc(C)c3c(c2)c(C(C)=O)nn3CC(=O)N2[C@H](C(=O)Nc3nc(Br)ccc3C)C[C@@]3(C)C[C@@H]23)cn1 [Compound 52, (1R,3S,5R)-2-(2-(3-acetyl-5-(2-methoxypyrimidin-5-yl)-7-methyl-1H-indazol-1-yl)acetyl)-N-(6-bromo-3-methylpyridin-2-yl)-5-methyl-2-azabicyclo[3.1.0]hexane-3-carboxamide]
> 6.00 | CC(=O)c1nn(CC(=O)N2[C@H](C(=O)NC(C)Cc3ccccc3F)C[C@@]3(C)C[C@@H]23)c2c(C)cc(-c3cnc(C)nc3)cc12 (stereo partly drawn) [Compound 186, (1R,3S,5R)-2-{2-[3-acetyl-7-methyl-5-(2-methylpyrimidin-5-yl)indazol-1-yl]acetyl}-N-[1-(2-fluorophenyl)propan-2-yl]-5-methyl-2-azabicyclo[3.1.0]hexane-3-carboxamide]
> 6.00 | CC(=O)c1nn(CC(=O)N2[C@H](C(=O)Nc3nc(C(F)(F)F)ccc3C)C[C@@]3(C)C[C@@H]23)c2c(C)cc(-c3cnc(C(=O)O)nc3)cc12 [Compound 51, 5-(3-acetyl-7-methyl-1-(2-((1R,3S,5R)-5-methyl-3-((3-methyl-6-(trifluoromethyl)pyridin-2-yl)carbamoyl)-2-azabicyclo[3.1.0]hexan-2-yl)-2-oxoethyl)-1H-indazol-5-yl)pyrimidine-2-carboxylic acid]
